Earlier results, collected in US20050186288A1, “Compositions and methods for the prophylaxis and treatment of aphthous ulcers and herpes simplex lesions” (Chiou Consulting Inc., priority 2002, published 2005).

System: herpes infection (wound or ulcer)
Conditions: salt alone

Row | Substance | effect in treating herpes infection (wound or ulcer)
1 | magnesium pentosan polysulfate | ineffective
2 | zinc pentosan polysulfate | ineffective
